Data reported in patent publication US6635668B1, “Imidazoline receptor binding compounds” (The University of North Carolina at Chapel Hill, priority 1998, dated 2003).
“Also recorded” adds a separate entry of the source. Structures can show the parent of a compound that is named as a salt.

Legend:
[1] = target: imidazoline receptor; assay: Imidazoline receptor binding (Tables 2 and 3); conditions: Table 2
[2] = target: imidazoline I2 sites; assay: Competition binding of 5 nM [3H]idazoxan to rat liver membranes; conditions: for Ki: 5 nM [3H]idazoxan (Kd 14 ± 2 nM), mean ± SD, compounds 4 and 8 mean ± 95% confidence intervals; for Hill Slope: inhibition of [3H]idazoxan binding
Experimental: Membrane preparation. Membranes were prepared in accordance with known techniques (R. Zonnenchein et al., Eur. J. Pharmacol. 190, 203-215 (1990)). […] The livers were weighed and minced with scissors before being homogenized at 4° C. in solution A (0.25 M sucrose containing 0.1 mM phenylmethyl sulfonyl fluoride 1:10 v/v) for 1 min using a Biospec homogenizer (Bartlesville, Okla., USA). The homogenate was centrifuged at 600×g for 10 min at 4° C. The resulting pellet was washed with solution A, discarded and the supernatant fractions were combined and centrifuged at 12,000×g for 30 min. This pellet was washed then resuspended in cold buffer B (50 mM Tris/HCl pH 7.4). Using a Bio-Rad (Hercules, Calif., USA) assay kit, the protein concentration was determined using bovine serum albumin as the standard according to the assay of Bradford et al. (Bradford, M. M., 1976. Anal. Biochem. 72, 248-254.). The preparation was stored at −80° C. at a concentration of 20 mg protein/ml. Competition binding studies. Competition experiments were performed in 1 ml buffer B containing 5 nM [^3H]idazoxan. […] In all experiments, bound and free radioligand were separated by vacuum filtration through Whatman GF/C filters and washed with 2×10 ml cold buffer B. Radioactivity on filters was determined by liquid scintillation spectroscopy using a Packard Tri-Carb 2100TR. […] Data analysis. Binding analyses, statistics and graphics were performed using Prism 2.01 (Graphpad Software, Inc., San Diego, Calif., USA). […] The calculated log of the octanol:water partition coefficient (ClogP) was calculated using MedChem Software 3.5 (Daylight Chemical Information Systems, New Orleans, La., USA).

[3] = system: Pneumocystis carinii; assay: Anti-Pneumocystis carinii activity, P. carinii pneumonia in the rat; type: in vivo; conditions: for anti-P. carinii activity (in words): rat, compared with pentamidine
Experimental: Anti-Pneumocystis carinii activity. Induction, treatment and evaluation of P. carinii pneumonia in the rat was carried out according to methods described previously (Jones, S. K. et al., Antimicrob. Agents Chemother. 34, 1026-1030 (1990)). To summarize the scoring procedure, the mean histologic scores were determined by two examiners using a blinded protocol. P. carinii cysts were counted in the stained lung sections and assigned the following values; 0.5—less than 10 cysts counted per two fully examined sections; 1—scattered cysts with less than 10% of the lung tissue involved; 2—scattered cysts with limited intense focal involvement and 10 to 25% of lung tissue involved; 3—scattered cysts with numerous intense areas of focal involvement and 26 to 50% of lung tissue involved; 4—cysts found throughout the tissue with numerous intense focal areas of involvement having greater than 50% of lung tissue involved.

[4] = target: imidazoline I2 sites; assay: [3H]Idazoxan saturation binding in rat liver membranes; conditions: 22° C., 45 min, read-out: Kd for saturable binding
Experimental: Membrane preparation. Membranes were prepared in accordance with known techniques (R. Zonnenchein et al., Eur. J. Pharmacol. 190, 203-215 (1990)). Briefly, male Sprague-Dawley rats (Hilltop, Scottsdale, Pa., USA) weighing approximately 250-300 g were decapitated, their livers rapidly removed and immediately placed into 0.25 M cold sucrose solution. The livers were weighed and minced with scissors before being homogenized at 4° C. in solution A (0.25 M sucrose containing 0.1 mM phenylmethyl sulfonyl fluoride 1:10 v/v) for 1 min using a Biospec homogenizer (Bartlesville, Okla., USA). The homogenate was centrifuged at 600×g for 10 min at 4° C. The resulting pellet was washed with solution A, discarded and the supernatant fractions were combined and centrifuged at 12,000×g for 30 min. This pellet was washed then resuspended in cold buffer B (50 mM Tris/HCl pH 7.4). Using a Bio-Rad (Hercules, Calif., USA) assay kit, the protein concentration was determined using bovine serum albumin as the standard according to the assay of Bradford et al. (Bradford, M. M., 1976. Anal. Biochem. 72, 248-254.). The preparation was stored at −80° C. at a concentration of 20 mg protein/ml. Saturation binding studies. Binding studies were performed in triplicate in 1 ml buffer B containing [^3H]idazoxan (0.1-50 nM). […]

Structure (SMILES) | Ki [1] [nM] | Ki [2] [nM] | Hill Slope [2] | further results
N=C(N)c1cccc(OCCCCCOc2cccc(C(=N)N)c2)c1 [001 KAO 011] | 158 | – | – | –
N=C(N)c1ccc2[nH]c3ccc(C(=N)N)cc3c2c1 [003 KAO 111] | 44700 | – | – | –
N=C(N)c1ccc2[nH]c(CCCCc3nc4cc(C(=N)N)ccc4[nH]3)nc2c1 [BABB] | 5530 | – | – | –
N=C(N)c1ccc2[nH]c(Cc3nc4cc(C(=N)N)ccc4[nH]3)nc2c1 [BABIM] | 7510 | – | – | –
c1ccc(C2CC2)c(OCC2=NCCN2)c1 [Cirazoline, cirazoline, reference compound] | – | 3 ± 0.4 | – | –
N=C(N)c1ccc(OCCCCCOc2ccc(C(=N)N)cc2)cc1 [Compound 1, pentamidine, reference compound] | – | 1.4 ± 0.22 | −0.8 | mean histologic score ([3]; rat lung sections, saline control 3.8 out of a possible 4.0): 1.3
N=C(N)c1ccc(OCCCCCCOc2ccc(C(=N)N)cc2)cc1 [Compound 2] | – | 3.2 ± 0.36 | −1.2 | anti-P. carinii activity (in words) [3]: greater than pentamidine
N=C(N)c1ccc(OCCCCOc2ccc(C(=N)N)cc2)cc1 [Compound 4] | – | – | −0.8 | anti-P. carinii activity (in words) [3]: greater than pentamidine
COc1cc(C(=N)N)ccc1OCCCOc1ccc(C(=N)N)cc1OC [Compound 6] | – | ~3500 | −0.9 | anti-P. carinii activity (in words) [3]: greater than pentamidine; also recorded: equally effective
N=C(N)c1ccc(OCCCCCOc2ccc([N+](=O)[O-])cc2)cc1 [Compound 8] | – | 62 ± 25 | −0.8 | –
N=C(N)c1ccc(OCCCCCO)cc1 [Compound 9] | – | 319 ± 39.5 | −0.8 | anti-P. carinii activity (in words) [3]: no activity at all
COc1ccc(C(=N)N)cc1 [Compound 10, 4-methoxybenzamidine] | – | 228 ± 36.5 | −0.8 | –
N=C(N)c1ccc(O)cc1 [Compound 11, 4-hydroxybenzamidine] | – | ~30000 | −0.3 | anti-P. carinii activity (in words) [3]: no activity at all
N=C(N)c1ccccc1 [Compound 12, benzamidine] | – | 580 ± 61.3 | −0.8 | –
N=C(N)c1ccc2c(c1)[nH]c1cc(C(=N)N)ccc12 [DAP 092] | 18100 | – | – | –
N=C(N)c1ccc2nc(C3=CCC=C(c4nc5ccc(C(=N)N)cc5[nH]4)N3)[nH]c2c1 [DB 205] | 347000 | – | – | –
[3H]c1cc2c(cc1[3H])OC(C1=NCCN1)CO2 (stereo not drawn) [[^3H]idazoxan, (1,4-[6,7-^3H]-benzodioxan-2-yl)-2-imidazoline hydrochloride] | – | – | – | Kd [4]: 14 ± 2 nM

The next lines start with results.

Ki [1] [nM] | Ki [2] [nM] | Hill Slope [2] | Structure (SMILES) | further results
44800 | – | – | c1cc2[nH]c(CCCCc3nc4cc(C5=NCCN5)ccc4[nH]3)nc2cc1C1=NCCN1 [BIBB] | –
– | 4.3 ± 1.09 | −0.8 | c1cc(C2=NCCN2)ccc1OCCCCCOc1ccc(C2=NCCN2)cc1 [Compound 3] | anti-P. carinii activity (in words) [3]: greater than pentamidine
– | 50.1 ± 1.06 | −0.9 | COc1cc(C2=NCCN2)ccc1OCCCOc1ccc(C2=NCCN2)cc1OC [Compound 5] | anti-P. carinii activity (in words) [3]: greater than pentamidine; also recorded: equally effective
– | – | −0.8 | N=C(N)c1ccc(OCCCOc2ccc(C(=N)N)cc2)cc1 [Compound 7] | –
630 | – | – | c1cc(-c2ccc(-c3ccc(C4=NCCN4)cc3)o2)ccc1C1=NCCN1 [DB 60] | –
653 | – | – | N=C(N)c1ccc(-c2ccc(-c3ccc(C(=N)N)cc3)o2)cc1 [DB 75] | –
236 | – | – | c1cc(-c2ccc(-c3ccc(C4=NCCCN4)cc3)o2)ccc1C1=NCCCN1 [DB 103] | –
5500 | – | – | CC(C)NC(=N)c1ccc(-c2ccc(-c3ccc(C(=N)NC(C)C)cc3)o2)cc1 [DB 181] | –
65600 | – | – | N=C(N)c1ccc2[nH]c(-c3ccc4[nH]c(-c5ccc(O)cc5)nc4c3)nc2c1 [DB 183] | –
6760 | – | – | N=C(NC1CCCC1)c1ccc(-c2ccc(-c3ccc(C(=N)NC4CCCC4)cc3)o2)cc1 [DB 244] | –
3780 | – | – | N=C(N)c1ccc(-c2ccc(-c3ccc(C(=N)N)cc3)[nH]2)cc1 [DB 262] | –
111 | – | – | N=C(N)c1ccc(-c2ccc(-c3ccc(C(=N)N)cc3)s2)cc1 [DB 351] | –
– | > 5000 | – | Cc1ccc(N(CC2=NCCN2)c2cccc(O)c2)cc1 [Phentolamine, phentolamine, reference compound] | –
